Data reported in US20140005216A1, “Nalmefene for reduction of alcohol consumption in specific target populations” (H. Lundbeck A/S, priority 2012, published 2014).
“Also recorded” adds a separate entry of the source.

Experiments:
[1] = tested on: patients with alcohol dependence; assay: Study 12023A: randomised, double blind, placebo controlled 6 month efficacy study, reduction of alcohol consumption; format: in vivo, human; conditions: nalmefene 18 mg as-needed, MMRM
Procedure: (§1) The efficacy of nalmefene on the reduction of alcohol consumption in patients with alcohol dependence (DSM-IV) was evaluated in two efficacy studies (Study 12014A and Study 12023A). Both studies were randomised, double blind, two-parallel group, placebo controlled, and after 6 months of treatment, patients receiving nalmefene were re-randomised to receive either placebo or nalmefene in a 1 month run out period. The efficacy of nalmefene was also evaluated in a randomised, double blind, two parallel group, placebo controlled 1 year safety study (Study 12013A). The studies included 1941 patients, 1144 of whom were treated with nalmefene 18 mg in an as-needed dosing regimen.
(§2) The studies were conducted applying an outpatient setting without preceding detoxification. Higher CIWA withdrawal scores at Screening as well as a history of delirium tremens and seizures would be indicative for the necessity of prior inpatient detoxification. Patients with abuse of substance other than alcohol and subjects with significant depressive or psychotic co-morbidity were excluded.
(§3) The studies included outpatients, aged ≧18 years, with a primary diagnosis of alcohol dependence. A patient was eligible for participation in the study if, in the 4 weeks preceding the Screening Visit (Baseline period), he/she had >6 HDDs, at least a medium DRL (calculated as mean daily alcohol consumption in g/day i.e. >40 g/day for men and >20 g/day for women calculated as mean daily alcohol consumption over the 4 week period preceding the screening visit), and ≦14 consecutive abstinent days. The timeline followback (TLFB) method was used to obtain estimates of the patient's daily drinking.
(§4) The studies were conducted over a 34 week period (12 visits) in total and consisted of four sequential periods: a 2-week screening period, a 24-week double-blind treatment period, a 4-week double-blind placebo-controlled run-out in each of the treatment arms and finally a 4-week safety follow-up. One to two weeks after the Screening Visit the patients were randomised 1:1 to 24 weeks of as-needed, double-blind treatment (Main Treatment Period: MTP) with nalmefene (18 mg) or placebo. The patients who completed 24 weeks of double-blind treatment entered a 4-week, double-blind Run-out Period (ROP). The patients randomised to nalmefene were re-randomised 1:1 to receive nalmefene (18 mg, as-needed) or placebo and the patients randomised to placebo continued on placebo.
(§5) The Timeline Follow-back (TLFB) method was used to collect self-reported drinking data (alcohol consumption).
(§6) At the initial visit, the patients' clinical status, social situation, and alcohol consumption pattern were evaluated (based on patient reporting). After a 1- to 2-week observation period the drinking risk level was re-assessed (i.e. the […] daily alcohol consumption over the 1-2 week assessment period was calculated), and treatment with nalmefene was initiated together with counseling with focus on motivating the patients to adhere to the treatment and to change their drinking behavior. In all the studies, a motivational and adherence enhancing intervention, according to the BRENDA model, was administered to all the patients to support the patients in changing their behavior and to enhance adherence to treatment.
(§7) The patients' alcohol intake (g/day) was estimated based on national definitions of standard units (subsequently converted into grams of alcohol). To define the standard units, a standard drink conversion card was distributed to each patient at the Screening Visit. Each patient was also provided with a calendar that he/she could use to support his/her input to the TLFB, or he/she could use a personal calendar, if preferred. For all the variables derived from the TLFB data, baseline was defined as the month (that is 4 weeks/28 consecutive days) preceding the Screening Visit. The investigational medicinal product (IMP) was taken as-needed. […]

[2] = tested on: patients with alcohol dependence; assay: Study 12013A: randomised, double blind, placebo controlled 1 year safety study, reduction of alcohol consumption; format: in vivo, human; conditions: nalmefene 18 mg as-needed, MMRM
Procedure: as §1, §2, §3, §5, §6
The patients' alcohol intake (g/day) was estimated based on national definitions of standard units (subsequently converted into grams of alcohol). To define the standard units, a standard drink conversion card was distributed to each patient at the Screening Visit. Each patient was also provided with a calendar that he/she could use to support his/her input to the TLFB, or he/she could use a personal calendar, if preferred. For all the variables derived from the TLFB data, baseline was defined as the month (that is 4 weeks/28 consecutive days) preceding the Screening Visit. The investigational medicinal product (IMP) was taken as-needed. Each patient was instructed to take a maximum of one tablet on each day the patient perceived a risk of drinking alcohol, preferably 1 to 2 hours prior to the anticipated time of drinking. If the patient had started drinking alcohol without taking nalmefene, the patient was to take one tablet as soon as possible. The dates when nalmefene was taken/not taken were recorded using the TLFB method. The chosen comparator was placebo
The efficacy of nalmefene was measured using two co-primary endpoints: the change in the monthly number of heavy drinking days (HDDs) and the change in the mean daily total alcohol consumption (TAC) per month (=28 days). A HDD was defined as a day with a consumption ≧60 g alcohol for men and ≧40 g for women. […]

[3] = tested on: alcohol dependence; conditions: 20 to 80 mg daily oral dosing; Mason et al. 1999; cited from earlier work
[4] = tested on: patients with alcohol dependence; assay: Three Lundbeck phase III studies (12014A, 12023A, 12013A) taken together, HDDs and TAC versus placebo; format: in vivo, human; conditions: for Effect on HDDs and TAC compared to placebo, relative to the total population: all three studies
Excerpt: The efficacy of nalmefene in the reduction of alcohol consumption in patients with alcohol dependence (DSM-IV) has been evaluated in two efficacy studies (Study 12014A and Study 12023A) and one safety study (Study 12013A) as described in the examples. All three studies were randomized, double blind, parallel-group and placebo-controlled.
The studies included outpatients, aged […], with a primary diagnosis of alcohol dependence. A patient was eligible for participation in the study if, in the 4 weeks preceding the Screening Visit (Baseline period), he/she had >6 HDDs, at least a medium DRL (calculated as mean daily alcohol consumption in g/day i.e. >40 g/day for men and >20 g/day for women calculated as mean daily alcohol consumption over the 4 week period preceding the screening visit), and ≦14 consecutive abstinent days. The timeline followback (TLFB) method was used to obtain estimates of the patient's daily drinking.
At the initial visit (screening visit), the patients' clinical status, social situation, and alcohol consumption pattern were evaluated. After a 1- to 2-week observation period the drinking risk level was re-assessed by calculating mean daily alcohol consumption in g/day over the 1- to 2-week observation period, and treatment with nalmefene was initiated together with counseling with focus on motivating the patients to adhere to the treatment and to change their drinking behavior.
The efficacy of nalmefene was measured using two co-primary endpoints: the change in the monthly number of heavy drinking days (HDDs) and the change in the mean daily total alcohol consumption (TAC) per month (=28 days).
The efficacy of nalmefene on the reduction of alcohol consumption in patients with alcohol dependence (DSM-IV) was evaluated in two efficacy studies (Study 12014A and Study 12023A). […] The efficacy of nalmefene was also evaluated in a randomised, double blind, two parallel group, placebo controlled 1 year safety study (Study 12013A). […]
The studies included outpatients, aged ≧18 years, with a primary diagnosis of alcohol dependence. A patient was eligible for participation in the study if, in the 4 weeks preceding the Screening Visit (Baseline period), he/she had >6 HDDs, at least a medium DRL (calculated as mean daily alcohol consumption in g/day i.e. >40 g/day for men and >20 g/day for women calculated as mean daily alcohol consumption over the 4 week period preceding the screening visit), and ≦14 consecutive abstinent days. […]
At the initial visit, the patients' clinical status, social situation, and alcohol consumption pattern were evaluated (based on patient reporting). […]

[5] = tested on: patients with alcohol dependence; assay: Study 12014A: randomised, double blind, placebo controlled 6 month efficacy study, reduction of alcohol consumption; format: in vivo, human; conditions: nalmefene 18 mg as-needed, MMRM
Procedure: as §1, §2, §3, §4, §5, §6, §7

[6] = tested on: alcohol dependence; conditions: 5, 20 and 40 mg daily doses; Anton et al. 2004; cited from earlier work
[7] = tested on: alcohol dependence; conditions: 20 mg taken when the patient experienced a craving for alcohol; Karhuvaara et al. 2007; cited from earlier work
[8] = High DRL at baseline & randomisation

With `C=C1CC[C@@]2(O)[C@H]3Cc4ccc(O)c5c4[C@@]2(CCN3CC2CC2)[C@H]1O5` [nalmefene, 17-(cyclopropylmethyl)-4,5-alpha-epoxy-6-methylenemorphinan-3,14-dial] the “Mean difference to placebo in the change from baseline to month 6, HDD” value (“Mean difference to placebo in the change … HDD” below) [1, 8] was −2.7 days/month, the “Mean difference to placebo in the change from baseline to month 6, TAC” value (“Mean difference to placebo in the change … TAC” for short) [1, 8] was -10.3 g/day and the “Mean difference to placebo in the change … HDD” value ([1]; High DRL at baseline) was −2.1 days/month. For the same compound, the “Mean difference to placebo in the change … TAC” value ([1]; High DRL at baseline) was -6.6 g/day, the “Mean difference to placebo in the change … HDD” value ([1]; Total excl. ERs) was −2.0 days/month and the “Mean difference to placebo in the change … TAC” value ([1]; Total excl. ERs) was -7.0 g/day. The “Mean difference to placebo in the change … HDD” value ([1]; Total population) was −1.7 days/month, the “Mean difference to placebo in the change … TAC” value ([1]; Total population) was -5.0 g/day and the “Mean difference to placebo in the change … HDD” value [2, 8] was −2.6 days/month. For the same compound, the “Mean difference to placebo in the change … TAC” value [2, 8] was -15.3 g/day, the “Mean difference to placebo in the change … HDD” value ([2]; High DRL at baseline) was −1.1 days/month and the “Mean difference to placebo in the change … TAC” value ([2]; High DRL at baseline) was -5.6 g/day. For the same compound, the “Mean difference to placebo in the change … HDD” value ([2]; Total excl. ERs) was −1.4 days/month, the “Mean difference to placebo in the change … TAC” value ([2]; Total excl. ERs) was -7.9 g/day and the “Mean difference to placebo in the change … HDD” value ([2]; Total population) was −0.9 days/month. The “Mean difference to placebo in the change … TAC” value ([2]; Total population) was -3.5 g/day, the “Effect in the management of alcohol dependence” value [3] was “good effect” and the “Reducing the number of HDDs and TAC versus placebo” value ([4]; month 6, total study population, two 6 month efficacy studies and 12 month safety study) was “superior to placebo”. For the same compound, the “Effect on HDDs and TAC compared to placebo, relative to the total population” value (from here on “Effect … relative to the total population”) ([4]; patients that were not ERs (total excluding Early Reducers)) was “more pronounced”, the “Effect … relative to the total population” value ([4]; patients with a high DRL at baseline) was “more pronounced” and the “Effect … relative to the total population” value ([4]; patients with a high DRL both at baseline and at randomisation) was “more pronounced; also recorded: even further pronounced”. For the same compound, the “Mean difference to placebo in the change … HDD” value [5, 8] was −3.7 days/month, the “Mean difference to placebo in the change … TAC” value [5, 8] was -18.3 g/day and the “Mean difference to placebo in the change … HDD” value ([5]; High DRL at baseline) was −2.6 days/month. For the same compound, the “Mean difference to placebo in the change … TAC” value ([5]; High DRL at baseline) was -12.2 g/day, the “Mean difference to placebo in the change … HDD” value ([5]; Total excl. ERs) was −3.1 days/month and the “Mean difference to placebo in the change … TAC” value ([5]; Total excl. ERs) was -14.5 g/day. For the same compound, the “Mean difference to placebo in the change … HDD” value ([5]; Total population) was −2.3 days/month, the “Mean difference to placebo in the change … TAC” value ([5]; Total population) was -11.0 g/day and the “Superiority over placebo in the management of alcohol dependence” value [6] was “no evidence of superiority of nalmefene over placebo”. The “Effect over placebo in the management of alcohol dependence” value [7] was “good effect of nalmefene over placebo”.
